Results as given in patent EP0029303B1, “1,2,4-Triazole derivatives, processes for their production and pharmaceutical compositions containing them” (GLAXO GROUP LIMITED, priority 1979, dated 1981).

tested on: histamine induced gastric acid secretion; experiment: inhibition of histamine induced gastric acid secretion in the perfused rat stomach preparation; assay type: in vivo; conditions: sodium pentobarbitone anaesthesia
Excerpt: Certain novel heterocyclic derivatives having a structure different from the compounds referred to above, have now been found which have potent activity as H2-antagonists.
The results obtained for a representative number of compounds according to the invention are given below: […]

**Q.** For Cn1nc(N)nc1NCCCOc1cccc(CNCc2ccco2)c1 [1 (b), 1-methyl-N^5-[3-[3-[(2-furanylmethyl)aminomethyl]phenoxy]propyl)-1H-1,2,4-triazole-3,5-diamine], which ED50 is on record?
**A.** 0.095 mg/kg

**Q.** CCCCCCCCCCCCNCc1cccc(OCCCNc2nc(N)nn2C)c1 [1 (d), 1-methyl-N^5-[3-[3-[(dodecylamino)methyl]phenoxy]-propyl]-1H-1,2 4-triazoie-3,5-diamine] was tested. Which ED50 did it give?
**A.** 0.075 mg/kg

**Q.** For CCCCNC(=O)CCCCCNCc1cccc(OCCCNc2nc(N)nn2C)c1 [1 (g)], which ED50 is on record?
**A.** 0.25 mg/kg

**Q.** How did the ED50 turn out when Cn1nc(N)nc1NCCCOc1cccc(CNCc2ccc[nH]2)c1 [2 (d), 1-methyl-N5-[3-[3-[(1H-pyrrol-2-yl-methyl)amino-methyl]phenoxy]propyl]-1H-1,2,4-triazole-3,5-diamine] was run?
**A.** 0.014 mg/kg

**Q.** For Cn1nc(N)nc1NCCCOc1cccc(CNCc2ccc(CO)o2)c1 [Example 2 (a), 5-[[3-[3-[(3-Amino-1-methyl-1,2,4-triazol-5-yl)-amino]propoxy]phenylmethyl]aminomethyl]furan-2-methanol], which ED50 is on record?
**A.** 0.19 mg/kg

**Q.** Which ED50 does the source give for Cn1nc(N=Cc2ccncc2)nc1NCCCOc1cccc(CNCc2ccco2)c1 [Example 5, 1-Methyl-N3-(4-pyridylmethylene)-N^5-[3-[3-[(2-furanylmethyt)-aminomethyl)phenoxy]propyl]-1 H-1,2,4-triazole-3,5-diamine] here?
**A.** 0.18 mg/kg

**Q.** CN(Cc1ccco1)Cc1ccc(CSCCNc2nc(CO)nn2C)o1 [Example 6, 5-[[2-[[[5-[[N-Methyl(2-furanylmethyl)amino]methyl]-2-furanyl]methyl]thio]ethyl]amino]-1-methyl-1 H-1,2,4-triazole-3-methanol] was tested. Which ED50 did it give?
**A.** 0.077 mg/kg
